Values joined by “and” are separate entries in the source; they are usually repeats but may differ in a detail not shown here. Equal entries are not always repeated.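 48-hour exposure; five concentrations; linearly interpolated endpoints. The concentration for 50% growth inhibition is given as GI50. TGI is the concentration that stops growth completely.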
Key:
Assay in all cases: NCI tumour cell line growth inhibition, 48 h
SR leukemia = tested on: SR leukemia
EKVX NSCLC = tested on: EKVX NSCLC
OVCAR-4 ovarian = tested on: OVCAR-4 ovarian
MCF7 breast = tested on: MCF7 breast
NCI-H226 lung = tested on: NCI-H226 lung
COLO 205 colon = tested on: COLO 205 colon
SN12C renal = tested on: SN12C renal
SNB-75 CNS = tested on: SNB-75 CNS
SK-MEL-2 melanoma = tested on: SK-MEL-2 melanoma
OVCAR-5 ovarian = tested on: OVCAR-5 ovarian

Row | SMILES | GI50 (SR leukemia) | TGI (SR leukemia) | GI50 (EKVX NSCLC) | TGI (EKVX NSCLC) | GI50 (OVCAR-4 ovarian) | TGI (OVCAR-4 ovarian) | TGI (MCF7 breast) | TGI (NCI-H226 lung) | TGI (COLO 205 colon) | TGI (SN12C renal) | TGI (SNB-75 CNS) | TGI (SK-MEL-2 melanoma) | TGI (OVCAR-5 ovarian) | GI50 (NCI-H226 lung) | GI50 (COLO 205 colon) | GI50 (SN12C renal) | GI50 (SNB-75 CNS) | GI50 (SK-MEL-2 melanoma) | GI50 (OVCAR-5 ovarian) | GI50 (MCF7 breast)
1 | Cc1cc(NCc2cc(Nc3ccnc4cc(Cl)ccc34)ccc2F)nc(N2CCCC2)n1 | 0.265 µM | 1.12 µM | 2.43 µM | 11.1 µM | 1.27 µM | 4.54 µM | – | – | – | – | – | – | – | – | – | – | – | – | – | –
2 | CC12CCC(C(=O)OC1=O)C(C)(C)O2 (centres undefined) | – | – | – | > 100 µM | – | > 100 µM | > 100 µM | > 100 µM | > 100 µM | > 100 µM | > 100 µM | > 100 µM | > 100 µM | – | – | – | – | – | – | –
3 | CN(C)CCNc1nc(-c2ccc3ccccc3c2)nc2nc[nH]c12 | – | 24.7 µM | – | 19.8 µM | – | 23.8 µM | 20.6 µM | 16.6 µM | 21.7 µM | 26.3 µM | 4.44 µM | 28.1 µM | 26 µM | – | – | – | – | – | – | –
4 | C/C=C/[P+](c1ccccc1)(c1ccccc1)c1ccccc1 | – | 2.58 µM | – | 13.5 µM | – | 25.4 µM | > 45.5 µM | 41.4 µM | 0.285 µM | 16.5 µM | 19.9 µM | 29.1 µM | 33.2 µM | – | – | – | – | – | – | –
5 | Cc1c2cc[n+](CCN3CCCCC3)cc2c(C)c2c1[nH]c1ccc(O)cc12 | – | 3.49 µM | 7.83 µM | 24.6 µM and 51.5 µM | 2.98 µM | 7.39 µM and 24.6 µM | 39.7 µM and 11.5 µM | 55.1 µM and 32.7 µM | 27.5 µM and > 24.2 µM | 20.8 µM and 6.03 µM | 5.4 µM and 18.7 µM | 35.5 µM and 36.3 µM | 62.4 µM and > 77.3 µM | 1.47 µM and 3.75 µM | 2.57 µM | 0.16 µM | 2.7 µM | 13.5 µM | 25.2 µM | –
6 | Cc1ccc(Oc2ccc(C)cc2[N+](=O)[O-])cc1 | – | > 100 µM | – | > 100 µM | – | > 100 µM | – | > 100 µM | > 100 µM | > 100 µM | > 100 µM | > 100 µM | > 100 µM | – | – | – | – | – | – | –
7 | O=S(=O)(Sc1ccc(Cl)cc1)c1ccc(Cl)cc1 | – | 45 µM | – | 57.5 µM | – | 41.7 µM | – | 30.9 µM | 31.8 µM | 25.4 µM | 40.5 µM | 14.5 µM | 37.9 µM | – | – | – | – | – | – | –
8 | COc1ccc([C@@H]2ON(C)[C@H]3CN(C)C(=O)[C@@H]23)cc1 | – | > 100 µM | – | – | – | > 100 µM | > 100 µM | > 100 µM | > 100 µM | > 100 µM | > 100 µM | > 100 µM | > 100 µM | – | – | – | – | – | – | –
9 | CCCCCCNC(=O)c1cnc(Cl)cn1 | – | 16.6 µM | – | 20.7 µM | – | 47.9 µM | 23.6 µM | 21.7 µM | 40 µM | 26 µM | 49.1 µM | 31 µM | 32.5 µM | – | – | – | – | – | – | –
10 | Cc1sc(Cc2ccccc2)nc1-c1ccc(N)cc1 | – | – | – | > 100 µM | – | 51.1 µM | 44.1 µM | – | 56.2 µM | 40.2 µM | – | 37.7 µM | > 100 µM | – | – | – | – | – | – | –
11 | COc1ccc(N2C(=O)C3c4[nH]c5c(C)cccc5c4C4CCC(C(C)(C)C)CC4C3C2=O)cc1 (centres undefined) | – | > 10 µM | – | > 10 µM | – | > 10 µM | > 10 µM | > 10 µM | > 10 µM | > 10 µM | > 10 µM | > 10 µM | > 10 µM | – | – | – | – | – | – | –
12 | NC(=O)CCCC(NCc1c2ccccc2nc2ccccc12)C(=O)O (centres undefined) | – | > 100 µM | – | > 100 µM | – | 41.7 µM | – | > 100 µM | > 100 µM | > 100 µM | > 100 µM | > 100 µM | > 100 µM | – | – | – | – | – | – | –
13 | Cc1ccccc1N=Nc1ccc(N=Nc2c(O)ccc3ccccc23)c(C)c1 | – | – | – | > 100 µM | – | > 100 µM | – | > 100 µM | > 100 µM | > 100 µM | > 100 µM | > 100 µM | > 100 µM | – | – | – | – | – | – | –
14 | NC(=O)NN=C(CS)CS | – | – | – | 33.7 µM | – | > 100 µM | > 69 µM | – | 46.6 µM | 55 µM | > 75.3 µM | 45.1 µM | 55.7 µM | – | – | – | – | – | – | –
15 | CN(C)CCCNc1ccc2ncn3c4ccccc4c(=O)c1c23 | – | 17.7 µM | – | – | – | 97.1 µM | – | 25.9 µM | 15 µM | > 100 µM | 92.2 µM | 26.8 µM | 38.5 µM | – | – | – | – | – | – | –
16 | CCOC(=O)/C(Cl)=C(\C)Nc1nc2c(ccc3ccccc32)s1 | – | 77.1 µM | – | > 100 µM | – | > 100 µM | > 100 µM | > 100 µM | > 100 µM | > 100 µM | > 100 µM | 60.1 µM | > 100 µM | – | – | – | – | – | – | –
17 | O=c1ccc2cc(O)c(O)cc2o1 | – | > 100 µM | – | > 100 µM | – | > 100 µM | > 100 µM | > 100 µM | > 100 µM | > 100 µM | > 100 µM | > 100 µM | > 100 µM | – | – | – | – | – | – | –
18 | CC(=O)C(O)N1C(=O)C=CC1=O (centres undefined) | – | – | 21.2 µM and 18.7 µM | 25 µM and 33.5 µM and 12.3 µM | – | – | > 25 µM and 32900 µM | – | – | – | – | – | – | – | – | – | – | – | 10500 µM | 14200 µM
19 | CCCCCCCSc1nc2c(C(=O)OCC)ncn2c2ccccc12 | – | > 100 µM | – | > 100 µM | – | – | – | > 100 µM | > 100 µM | > 100 µM | – | > 100 µM | > 100 µM | – | – | – | – | – | – | –
20 | CN(C)c1ccc(/C=N\NC(=O)CSCC(=O)N/N=C/c2ccc(N(C)C)cc2)cc1 | – | > 100 µM | – | > 100 µM | – | > 100 µM | > 100 µM | > 100 µM | > 100 µM | > 100 µM | > 100 µM | > 100 µM | > 100 µM | – | – | – | – | – | – | –
21 | COc1ccc(-c2c3c(nc4nc(SCCc5ccccc5)nc(N)c24)CCCC3)cc1OC | – | > 100 µM | – | > 100 µM | – | > 100 µM | > 100 µM | – | > 100 µM | > 100 µM | > 100 µM | – | > 100 µM | – | – | – | – | – | – | –
22 | CC1C(O)C2(Oc3cc4c(c5c3[C@@H](CC5O)[C@H]2C)CCC2Cc3nc5c(nc3C[C@@]42C)CC2CCC3C4=C[C@H]6O[C@@]7(O[C@@](C)(CO)C[C@@H]7O)C(C)[C@@]6(O)[C@]4(C)[C@@H](O)CC3[C@]2(C)C5)OC1(C)C (some centres undefined) | – | – | – | > 3.67 µM | – | > 3.67 µM | > 3.67 µM | 1.23 µM | 0.609 µM | > 3.67 µM | 0.0842 µM | 0.611 µM | 1.32 µM | – | – | – | – | – | – | –
23 | N#CC(c1ccccc1)c1nc2ccc(=N)cc-2n(O)c1C(C#N)c1ccccc1 (centres undefined) | – | > 100 µM | – | > 100 µM | – | > 100 µM | – | > 100 µM | > 100 µM | > 100 µM | – | > 100 µM | > 100 µM | – | – | – | – | – | – | –
24 | Cc1ccc(S(=O)(=O)NCCSCCNS(=O)(=O)c2ccc(C)cc2)cc1 | – | > 100 µM | – | – | – | > 100 µM | > 100 µM | > 100 µM | > 100 µM | > 100 µM | > 100 µM | – | – | – | – | – | – | – | – | –

— PubChem BioAssay (NCI)
